Read-outs that look alike come from different tables or passages of the source.
Key:
[1] = system: A2780 cells; assay: In-vitro cell proliferation assay (SRB), A2780 cells; type: cell-based; conditions: Homo sapiens, A2780, 72 h, A2780 cells, 72 hours, read-out: A2780 IC50
Method: In-Vitro Cell Proliferation Assay
After overnight incubation at 37° C. and 5% CO2, the compound titrations were performed in a separate dilution plate by serially diluting the compounds in DMSO to make a 1000× stock. The compounds were then further diluted to 10× final concentration in culture media, whereupon 20 μL of each dilution was added to the plated cells with controls (e.g. DMSO and blank) to make a final volume of 200 μL. The final DMSO concentration in each well was 0.1%. The plates were then incubated for 72 hours at 37° C. in a 5% CO2 incubator. The number of viable cells was then assessed using sulforhodamine B (SRB) assay. Cells were fixed at 4° C. for 1 hour with the addition of 50 μL 30% trichloroacetic acid (TCA) to make a final concentration of 6% TCA. The plates were washed four times with H2O and allowed to dry for at least 1 hour, whereupon 100 μL of a 4% SRB in 1% acetic acid solution was added to each well and incubated at room temperature for at least 30 minutes. The plates were then washed three times with 1% acetic acid, dried, and treated with 100 μL of 10 mM Tris-Base solution. The plates were then read in a microplate reader at an absorbance of 570 nm. Background was generated on a separate plate with media only.
Method for Determining % Inhibition
First, the signals from the background plate are averaged, then the background was subtracted from the test plates.
wherein X denotes the compound concentration 1, Y denotes the compound concentration 2, XX denotes the % inhibition at compound concentration 1 (X), and YY denotes the % inhibition at compound concentration 2 (Y).

[2] = molecular target: T1, NAMPT (Homo sapiens, UniProt P43490); assay: Biochemical inhibition assay: NAMPT enzymatic reaction, NMN quantified by mass spectrometry; conditions: read-out: Biochem IC50
T1 construct: His tag; host or cells: E. coli
Method: Biochemical Inhibition Assay
NAMPT Protein Purification
Recombinant His-tagged NAMPT was produced in E. coli cells, purified over a Ni column, and further purified over a size-exclusion column by XTAL Biostructures.
The NAMPT Enzymatic Reaction
The NAMPT enzymatic reactions were carried out in Buffer A (50 mM Hepes pH 7.5, 50 mM NaCl, 5 mM MgCl2, and 1 mM THP) in 96-well V-bottom plates. The compound titrations were performed in a separate dilution plate by serially diluting the compounds in DMSO to make a 100× stock. […] The compound and enzyme mix was incubated for 15 minutes at room temperature, then 10 μL of 10× substrate and co-factors in Buffer A were added to the test well to make a final concentration of 1 μM NAM, 100 μM 5-Phospho-D-ribose 1-diphosphate (PRPP), and 2.5 mM Adenosine 5′-triphosphate (ATP). The reaction was allowed to proceed for 30 minutes at room temperature, then was quenched with the addition of 11 μL of a solution of formic acid and L-Cystathionine to make a final concentration of 1% formic acid and 10 μM L-Cystathionine. Background and signal strength was determined by addition (or non-addition) of a serial dilution of NMN to a pre-quenched enzyme and cofactor mix.
A mass spectrometry-based assay was used to measure the NAMPT reaction product (NMN) and the internal control (L-Cystathionine). NMN and L-Cystathionine were detected using the services of Biocius Lifesciences with the RapidFire system. In short, the NMN and L-Cystathionine are bound to a graphitic carbon cartridge in 0.1% formic acid, eluted in 30% acetonitrile buffer, and injected into a Sciex 4000 mass spectrometer. The components of the sample were ionized with electrospray ionization and the positive ions were detected. […] The fragments are quantified and the analyzed by the following method.
First the NMN signal is normalized to the L-Cystathionine signal by dividing the NMN signal by the L-Cystathionine signal for each well. The signal from the background wells are averaged and subtracted from the test plates. […] IC50s are Determined Using Excel and this Formula.

T1 sequence (P43490 whole entry): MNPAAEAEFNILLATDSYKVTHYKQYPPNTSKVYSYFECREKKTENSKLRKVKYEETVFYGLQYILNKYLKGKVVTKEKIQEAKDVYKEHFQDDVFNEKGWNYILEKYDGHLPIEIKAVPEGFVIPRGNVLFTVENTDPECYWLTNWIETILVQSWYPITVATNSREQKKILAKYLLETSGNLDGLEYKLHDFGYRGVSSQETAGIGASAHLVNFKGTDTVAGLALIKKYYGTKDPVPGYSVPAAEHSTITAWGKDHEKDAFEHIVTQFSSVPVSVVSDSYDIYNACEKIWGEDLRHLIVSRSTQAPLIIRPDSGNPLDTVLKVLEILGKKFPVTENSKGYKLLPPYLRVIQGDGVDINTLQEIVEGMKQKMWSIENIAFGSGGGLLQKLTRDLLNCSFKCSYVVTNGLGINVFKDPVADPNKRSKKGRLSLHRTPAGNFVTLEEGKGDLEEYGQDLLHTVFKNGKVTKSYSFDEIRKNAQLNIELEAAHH

## O=C(NCc1ccc(S(=O)(=O)c2cc(C(F)(F)F)ccn2)cc1)c1cnc2nccn2c1 [N-({4-[4-(trifluoromethyl)pyridine-2-sulfonyl]phenyl}methyl)imidazo[1,2-a]pyrimidine-6-carboxamide]
[1]; SRB
  IC50: 13 nM
[2]; NAMPT enzymatic assay
  IC50: 8.7 nM

## O=C(NCc1ccc(S(=O)(=O)c2cncc3ccccc23)cc1)c1cc2ccncc2o1 [N-{[4-(isoquinoline-4-sulfonyl)phenyl]methyl}furo[2,3-c]pyridine-2-carboxamide]
[1]; SRB
  IC50: 3 nM
[2]; NAMPT enzymatic assay
  IC50: 19 nM

## O=C(NCc1ccc(S(=O)(=O)c2cccc(Cl)c2)cc1)c1cc2ccncc2o1 [N-({4-[{3-chlorobenzene)sulfonyl]phenyl}methyl)furo[2,3-c]pyridine-2-carboxamide]
[1]; SRB
  IC50: 3.3 nM
[2]; NAMPT enzymatic reaction
  IC50: 6 nM

## O=C(NCc1ccc(S(=O)(=O)c2cccc(N3CCCCC3)c2)cc1)c1ccc2ncsc2c1
[1]; SRB
  IC50: 100 to 1000 nM
[2]; NAMPT enzymatic assay
  IC50: 21 nM

## Cc1ccc(S(=O)(=O)c2ccc(CNC(=O)c3cc4ccncc4s3)cc2)cc1 [N-({4-[(4-methylbenzene)sulfonyl]phenyl}methyl)thieno[2,3-c]pyridine-2-carboxamide]
[1]; SRB assay
  IC50: 5 nM
[2]; NAMPT enzymatic reaction
  IC50: 5 nM

## Cc1cc(Cl)cnc1S(=O)(=O)c1ccc(CNC(=O)c2cc3ccncc3s2)cc1 [N-{[4-(5-chloro-3-methylpyridine-2-sulfonyl)phenyl]methyl}thieno[2,3-c]pyridine-2-carboxamide]
[1]; SRB
  IC50: 7.2 nM
[2]; NAMPT enzymatic assay
  IC50: 3.9 nM

## O=C(NCc1ccc(S(=O)(=O)C2CCCCC2)cc1)c1cc2cnccc2[nH]1 [N-{[4-(cyclohexanesulfonyl)phenyl]methyl}-1H-pyrrolo[3,2-c]pyridine-2-carboxamide]
[1]; SRB
  IC50: 17.6 nM
[2]; NAMPT enzymatic assay
  IC50: 5 nM

## Cn1ncc2cc(S(=O)(=O)c3ccc(CNC(=O)c4cc5cnccc5[nH]4)cc3)ccc21 [N-{[4-(1-methyl-1H-indazole-5-sulfonyl)phenyl]methyl}-1H-pyrrolo[3,2-c]pyridine-2-carboxamide]
[1]; SRB
  IC50: 3.1 nM
[2]; NAMPT enzymatic assay
  IC50: 5.7 nM

## O=C(NCc1ccc(S(=O)(=O)c2cc(F)cc(OCC(F)(F)F)c2)cc1)c1cc2ccncc2s1 [N-[(4-{[3-fluoro-5-(2,2,2-trifluoroethoxy)benzene]sulfonyl}phenyl)methyl]thieno[2,3-c]pyridine-2-carboxamide]
[1]; SRB
  IC50: 3.5 nM
[2]; NAMPT enzymatic assay
  IC50: 2.9 nM

## Cc1ccc(S(=O)(=O)c2ccc(CNC(=O)c3cc4cnccc4[nH]3)cc2)cc1 [N-({4-[(4-methylbenzene)sulfonyl]phenyl}methyl)-1H-pyrrolo[3,2-c]pyridine-2-carboxamide]
[1]; SRB assay
  IC50: 9 nM
[2]; NAMPT enzymatic reaction
  IC50: 6 nM

## O=C(NCc1ccc(S(=O)(=O)c2cccc3ccsc23)cc1)c1cnc2[nH]ncc2c1 [N-{[4-(1-benzothiophene-7-sulfonyl)phenyl]methyl}-1H-pyrazolo[3,4-b]pyridine-5-carboxamide]
[1]; SRB
  IC50: 12.8 nM
[2]; NAMPT enzymatic assay
  IC50: 9.9 nM

## O=C(COc1cccnc1)Nc1ccc(S(=O)(=O)N2CCCCC2)cc1 [N-[4-(piperidine-1-sulfonyl)phenyl]-2-(pyridin-3-yloxy)acetamide]
[1]; SRB assay
  IC50: 6.6 nM
[2]; NAMPT enzymatic reaction
  IC50: 1.1 nM

## CC(C)Oc1cccc(S(=O)(=O)c2ccc(CNC(=O)c3cnc4nccn4c3)cc2)c1
[1]; SRB
  IC50: 10.5 nM
[2]; NAMPT enzymatic assay
  IC50: 2.3 nM

## O=C(NCc1ccc(S(=O)(=O)c2ccc(Cn3ccnc3)cc2)cc1)c1cc2ccncc2s1
[1]; SRB
  IC50: 12.2 nM
[2]; NAMPT enzymatic assay
  IC50: 5.3 nM

## CC(C)(C)c1cccc(S(=O)(=O)c2ccc(CNC(=O)c3cc4ccncc4s3)cc2)c1
[1]; SRB
  IC50: 9.1 nM
[2]; NAMPT enzymatic reaction
  IC50: 10.5 nM

## O=C(NCc1ccc(S(=O)(=O)c2cccc(OC(F)(F)F)c2)cc1)c1cnc2nccn2c1
[1]; SRB
  IC50: 2.7 nM
[2]; NAMPT enzymatic assay
  IC50: 2.5 nM

## COc1cc(C)cc(S(=O)(=O)c2ccc(CNC(=O)c3cnc4nccn4c3)cc2)c1OC
[1]; SRB
  IC50: 15.6 nM
[2]; NAMPT enzymatic reaction
  IC50: 4.2 nM

## CS(=O)(=O)c1ccccc1S(=O)(=O)c1ccc(CNC(=O)c2cc3ccncc3o2)cc1
[1]; SRB
  IC50: 100 to 1000 nM
[2]; NAMPT enzymatic reaction
  IC50: 54.2 nM

## O=C(NCc1ccc(S(=O)(=O)c2ccc(Cl)cc2)cc1)c1cnc2nccn2c1
[1]; SRB
  IC50: 23.6 nM
[2]; NAMPT enzymatic reaction
  IC50: 2.5 nM

## O=C(NCc1ccc(S(=O)(=O)Nc2ccccc2N2CCOCC2)cc1)c1cc2cnccc2[nH]1 [N-[(4-{[2-(morpholin-4-yl)phenyl]sulfamoyl}phenyl)methyl]-1H-pyrrolo[3,2-c]pyridine-2-carboxamide]
[1]; SRB assay
  IC50: 17 nM
[2]; NAMPT enzymatic reaction
  IC50: 19 nM

## O=C(NCc1ccc(S(=O)(=O)c2cc(C(F)(F)F)ccc2OCc2ccccc2)cc1)c1cnc2nccn2c1
[1]; SRB
  IC50: 100 to 1000 nM
[2]; NAMPT enzymatic assay
  IC50: 33.2 nM

## O=C(NCc1ccc(S(=O)(=O)c2ccc3ncccc3c2)cc1)c1cnc2[nH]ncc2c1 [N-{[4-(quinoline-6-sulfonyl)phenyl]methyl}-1H-pyrazolo[3,4-b]pyridine-5-carboxamide]
[1]; SRB
  IC50: 4.1 nM
[2]; NAMPT enzymatic assay
  IC50: 10.1 nM

## CC(=O)c1ccc(S(=O)(=O)c2ccc(CNC(=O)c3cnc4[nH]ncc4c3)cc2)cc1
[1]; SRB
  IC50: 3.7 nM
[2]; NAMPT enzymatic reaction
  IC50: 28.9 nM

## COc1ccc(F)cc1S(=O)(=O)c1ccc(CNC(=O)c2cc3cnccc3[nH]2)cc1 [N-({4-[(5-fluoro-2-methoxybenzene)sulfonyl]phenyl}methyl)-1H-pyrrolo[3,2-c]pyridine-2-carboxamide]
[1]; SRB assay
  IC50: 3 nM
[2]; NAMPT enzymatic reaction
  IC50: 5 nM

## COc1c(F)cccc1S(=O)(=O)c1ccc(CNC(=O)c2cnc3[nH]ncc3c2)cc1 [N-({4-[(3-fluoro-2-methoxybenzene)sulfonyl]phenyl}methyl)-1H-pyrazolo[3,4-b]pyridine-5-carboxamide]
[1]; SRB
  IC50: 100 to 1000 nM
[2]; NAMPT enzymatic reaction
  IC50: 121 nM

## O=C(NCc1ccc(S(=O)(=O)c2ccc(C(F)(F)F)cc2C(F)(F)F)cc1)c1cnc2[nH]ncc2c1 [N-[(4-{[2,4-bis(trifluoromethyl)benzene]sulfonyl}phenyl)methyl]-1H-pyrazolo[3,4-b]pyridine-5-carboxamide]
[1]; SRB
  IC50: 56.2 nM
[2]; NAMPT enzymatic assay
  IC50: 81.6 nM

## Cc1ccc(Cl)c(S(=O)(=O)c2ccc(CNC(=O)c3cc4ccncc4s3)cc2)c1Cl [N-({4-[(2,6-dichloro-3-methylbenzene)sulfonyl]phenyl}methyl)thieno[2,3-c]pyridine-2-carboxamide]
[1]; SRB
  IC50: 8.2 nM
[2]; NAMPT enzymatic reaction
  IC50: 4.4 nM

## Cc1ccncc1S(=O)(=O)c1ccc(CNC(=O)c2cc3ccncc3s2)cc1 [N-{[4-(4-methylpyridine-3-sulfonyl)phenyl]methyl}thieno[2,3-c]pyridine-2-carboxamide]
[1]; SRB
  IC50: 22.5 nM
[2]; NAMPT enzymatic assay
  IC50: 29.2 nM

## O=C(NCc1ccc(S(=O)(=O)c2ccc(F)c(F)c2)cc1)c1cnc2nccn2c1
[1]; SRB
  IC50: 36.3 nM
[2]; NAMPT enzymatic reaction
  IC50: 4.1 nM

## CCCCOc1ccc(S(=O)(=O)c2ccc(CNC(=O)c3cc4cnccc4[nH]3)cc2)cc1 [N-({4-[(4-butoxybenzene)sulfonyl]phenyl}methyl)-1H-pyrrolo[3,2-c]pyridine-2-carboxamide]
[1]; SRB
  IC50: 17.1 nM
[2]; NAMPT enzymatic reaction
  IC50: 8.4 nM

## CS(=O)(=O)c1cccc(S(=O)(=O)c2ccc(CNC(=O)c3cc4ccncc4o3)cc2)c1
[1]; SRB
  IC50: 6.8 nM
[2]; NAMPT enzymatic reaction
  IC50: 6 nM

## COc1ccc(C#N)cc1S(=O)(=O)c1ccc(CNC(=O)c2ccc3nccn3c2)cc1
[1]; SRB
  IC50: 11.9 nM
[2]; NAMPT enzymatic reaction
  IC50: 14.6 nM

## Cc1cncc(S(=O)(=O)c2ccc(CNC(=O)c3ccc4nccn4c3)cc2)c1 [N-{[4-(5-methylpyridine-3-sulfonyl)phenyl]methyl}imidazo[1,2-a]pyridine-6-carboxamide]
[1]; SRB
  IC50: 7.1 nM
[2]; NAMPT enzymatic assay
  IC50: 36.8 nM

## Cc1ccc(S(=O)(=O)c2ccc(CNC(=O)c3cc4cnccc4[nH]3)cc2)c(Cl)c1
[1]; SRB
  IC50: 2.7 nM
[2]; NAMPT enzymatic reaction
  IC50: 8 nM

## COc1ccc(S(=O)(=O)c2ccc(CNC(=O)c3ccc4nccn4c3)cc2)c(OC)n1 [N-{[4-(2,6-dimethoxypyridine-3-sulfonyl)phenyl]methyl}imidazo[1,2-a]pyridine-6-carboxamide]
[1]; SRB
  IC50: 9.2 nM
[2]; NAMPT enzymatic assay
  IC50: 43.3 nM
